ChEMBL document CHEMBL6071156 (Eur J Med Chem, 2024)
Calls of active or inactive are those of the source. No cut-off for these calls is given here.

Assays:
[1] = test system: Chikungunya virus; experiment: Antiviral activity against CHIKV S27 in green monkey Vero 76 cells assessed as reduction in virus-induced cytopathic effect; assay type: functional, organism-based; conditions: S27, Vero 76
[2] = Cytotoxicity against green monkey Vero 76 cells assessed as reduction in cell viability; assay type: toxicity, cell-based; conditions: chlorocebus sabaeus
[3] = test system: Chikungunya virus; experiment: Antiviral activity against CHIKV infected in C57BL/6 mouse model assessed as virus titers at 100 mg/kg/day, ip measured after 6 days post infection presence of compound (reference value: 5.3+/0.3); assay type: functional; conditions: time 6 day
[4] = test system: Chikungunya virus; experiment: Antiviral activity against CHIKV infected in C57BL/6 mouse assessed as mouse survival at 300 mg/kg/day, ip measured after 6 days post infection after 4 hrs of last treatment; assay type: functional, organism-based; conditions: time 6.0 day
[5] = test system: Chikungunya virus; experiment: Antiviral activity against CHIKV infected in C57BL/6 mouse assessed as footpad swelling at 300 mg/kg/day, ip measured after 6 days post infection presence of compound (reference value: 40.9+/-12.4); assay type: functional; conditions: time 6 day
[6] = Selective index, ratio of ratio of CC50 for cytotoxicity against green monkey Vero 76 cells to EC50 for antiviral activity against CHIKV S27 in green monkey Vero 76 cells assessed as reduction; assay type: toxicity, cell-based; conditions: read-out: Selectivity Index
[7] = test system: Chikungunya virus; experiment: Antiviral activity against CHIKV S27 in green monkey Vero 76 cells assessed as reduction in virus yield measured after 3 days by Virus yield reduction assay; assay type: functional; conditions: S27, Vero 76, 72 h, time 3 day
[8] = Metabolic stability in human liver S9 fraction assessed as intrinsic clearance by HPLC-MS/MS analysis; assay type: ADME, subcellular
[9] = Metabolic stability in human liver S9 fraction assessed as half life by HPLC-MS/MS analysis; assay type: ADME, subcellular
[10] = target: Polyprotein P1234 (Chikungunya virus (strain S27-African prototype) (CHIKV)) (UniProt Q8JUX6)
[11] = target: Polyprotein P1234 (Chikungunya virus (strain S27-African prototype) (CHIKV)) (UniProt Q8JUX6); conditions: dose 0.27-600 µM, time 2000-8000 sec
[12] = Metabolic stability in CD-1 mouse liver microsomes assessed as half life by HPLC-MS/MS analysis; assay type: ADME, Microsome
[13] = Metabolic stability in human liver microsomes assessed as intrinsic clearance by HPLC-MS/MS analysis; assay type: ADME, Microsome
[14] = target: Polyprotein P1234 (Chikungunya virus (strain S27-African prototype) (CHIKV)) (UniProt Q8JUX6); conditions: dose 0.27-600 µM

Chain of Polyprotein P1234 (Chikungunya virus (strain S27-African prototype) (CHIKV)) (Q8JUX6 whole entry): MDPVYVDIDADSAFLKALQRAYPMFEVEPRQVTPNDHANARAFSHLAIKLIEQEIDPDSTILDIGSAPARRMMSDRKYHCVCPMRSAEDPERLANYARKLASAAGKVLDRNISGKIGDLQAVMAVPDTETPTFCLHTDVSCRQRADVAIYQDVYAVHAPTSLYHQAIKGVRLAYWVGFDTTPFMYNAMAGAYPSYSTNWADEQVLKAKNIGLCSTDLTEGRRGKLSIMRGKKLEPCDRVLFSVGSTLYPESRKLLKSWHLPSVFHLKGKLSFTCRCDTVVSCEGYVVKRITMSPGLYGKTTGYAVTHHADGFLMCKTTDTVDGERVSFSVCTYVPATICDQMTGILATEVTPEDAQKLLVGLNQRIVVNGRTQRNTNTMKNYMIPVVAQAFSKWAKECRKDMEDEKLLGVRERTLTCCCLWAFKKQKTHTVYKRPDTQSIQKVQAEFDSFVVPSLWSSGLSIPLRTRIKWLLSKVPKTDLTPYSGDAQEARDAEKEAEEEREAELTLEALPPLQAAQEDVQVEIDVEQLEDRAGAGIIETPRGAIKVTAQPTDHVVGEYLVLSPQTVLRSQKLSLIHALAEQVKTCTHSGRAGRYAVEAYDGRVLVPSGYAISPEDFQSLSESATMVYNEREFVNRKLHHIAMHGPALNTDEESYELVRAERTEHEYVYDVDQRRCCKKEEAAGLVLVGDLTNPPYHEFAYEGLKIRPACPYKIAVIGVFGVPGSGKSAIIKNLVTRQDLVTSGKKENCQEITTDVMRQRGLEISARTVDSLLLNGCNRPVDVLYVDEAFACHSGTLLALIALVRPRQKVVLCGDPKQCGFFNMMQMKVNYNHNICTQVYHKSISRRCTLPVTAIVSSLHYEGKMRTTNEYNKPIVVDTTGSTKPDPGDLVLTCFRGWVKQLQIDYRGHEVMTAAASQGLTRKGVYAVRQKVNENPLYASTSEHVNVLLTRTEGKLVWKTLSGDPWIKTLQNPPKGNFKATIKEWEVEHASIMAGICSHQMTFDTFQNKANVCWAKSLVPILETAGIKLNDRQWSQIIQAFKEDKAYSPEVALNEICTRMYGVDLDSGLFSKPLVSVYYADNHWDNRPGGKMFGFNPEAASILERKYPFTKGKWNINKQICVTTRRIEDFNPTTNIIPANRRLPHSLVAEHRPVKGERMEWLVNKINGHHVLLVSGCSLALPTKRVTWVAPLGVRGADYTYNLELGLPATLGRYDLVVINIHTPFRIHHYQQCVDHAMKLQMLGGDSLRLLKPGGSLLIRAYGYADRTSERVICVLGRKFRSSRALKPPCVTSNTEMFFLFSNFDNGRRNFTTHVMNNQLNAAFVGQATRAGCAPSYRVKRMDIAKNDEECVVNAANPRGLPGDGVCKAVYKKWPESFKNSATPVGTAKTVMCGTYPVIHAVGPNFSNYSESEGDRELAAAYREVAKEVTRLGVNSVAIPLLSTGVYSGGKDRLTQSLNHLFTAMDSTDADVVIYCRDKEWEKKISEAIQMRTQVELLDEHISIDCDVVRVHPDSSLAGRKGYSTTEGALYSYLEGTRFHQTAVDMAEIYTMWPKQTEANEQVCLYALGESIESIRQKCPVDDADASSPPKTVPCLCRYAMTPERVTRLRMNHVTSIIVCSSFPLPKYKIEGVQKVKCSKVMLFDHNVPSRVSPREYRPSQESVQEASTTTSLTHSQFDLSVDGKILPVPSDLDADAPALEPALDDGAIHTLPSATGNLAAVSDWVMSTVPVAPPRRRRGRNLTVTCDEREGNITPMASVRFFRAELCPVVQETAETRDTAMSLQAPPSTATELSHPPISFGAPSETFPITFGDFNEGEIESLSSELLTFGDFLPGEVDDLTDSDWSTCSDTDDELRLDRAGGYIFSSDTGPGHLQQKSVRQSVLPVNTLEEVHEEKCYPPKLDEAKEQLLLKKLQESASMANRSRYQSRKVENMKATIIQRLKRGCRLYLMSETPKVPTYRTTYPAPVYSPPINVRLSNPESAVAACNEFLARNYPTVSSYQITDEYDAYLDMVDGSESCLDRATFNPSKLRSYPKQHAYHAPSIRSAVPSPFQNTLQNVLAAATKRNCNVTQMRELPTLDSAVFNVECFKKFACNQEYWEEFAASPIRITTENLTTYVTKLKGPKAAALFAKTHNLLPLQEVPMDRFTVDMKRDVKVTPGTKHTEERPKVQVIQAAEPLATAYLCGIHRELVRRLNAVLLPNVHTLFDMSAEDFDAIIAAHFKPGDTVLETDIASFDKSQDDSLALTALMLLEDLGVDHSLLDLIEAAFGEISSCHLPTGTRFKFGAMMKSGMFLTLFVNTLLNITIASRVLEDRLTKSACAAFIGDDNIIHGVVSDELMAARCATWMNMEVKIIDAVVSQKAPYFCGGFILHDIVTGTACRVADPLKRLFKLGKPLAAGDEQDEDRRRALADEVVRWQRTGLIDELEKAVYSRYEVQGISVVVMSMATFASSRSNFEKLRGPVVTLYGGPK

## COC(=O)CCCNC(=O)c1cccc2c1NC(C)(C)CC2C (stereo not given)
[1]
  EC50: > 50 µM
[2]
  CC50: > 50 µM

## CS(=O)(=O)/C=C/[C@H](Cc1ccccc1)NC(=O)c1cccc2cccnc12
[1]
  EC50: > 50 µM
[2]
  CC50: > 50 µM

## NC(=O)c1nc(F)cnc1O
[3]
  Activity: 5.1
[4]
  Survival: Active
[5]
  Activity: 32.6%

## COC(=O)/C=C/CNC(=O)c1cccc2c1NC(C)(C)C=C2C
[1]
  EC50: > 22 µM
[2]
  CC50: > 22 µM

## CC1=CC(C)(C)Nc2c(C(=O)NC/C=C/S(C)(=O)=O)cccc21
[1]
  EC50: 23 µM
[2]
  CC50: 39 µM

## CC1CC(C)(C)Nc2c(C(=O)NC/C=C/S(C)(=O)=O)cccc21 (stereo not given)
[1]
  EC50: 25 µM
[2]
  CC50: > 50 µM
[6]
  selectivity ratio: > 2

## COC(=O)/C=C/CNC(=O)c1cc(C)cc2c1NC(C)(C)C=C2C
[1]
  EC50: > 43 µM
[2]
  CC50: > 43 µM

## COC(=O)/C=C/CNC(=O)c1cccc2c1NCCC2
[1]
  EC50: > 50 µM
[2]
  CC50: > 50 µM

## CC1=CC(C)(C)Nc2c(C(=O)N[C@@H](C)/C=C/S(C)(=O)=O)cccc21
[1]
  EC50: 4.4 µM
[2]
  CC50: > 50 µM
[6]
  selectivity ratio: > 11

## CC1CCc2cccc(C(=O)NC/C=C/S(C)(=O)=O)c2N1 (stereo not given)
[1]
  EC50: 0.23 µM
[7]
  EC90: 1.5 µM
[2]
  CC50: > 50 µM
[8]
  CLH: < 19.3 µL/min/mg
[9]
  t1/2: > 2 h
[6]
  selectivity ratio: > 220
[10]
  Ratio (10^-6 microM/s): 35.8
[11]
  TDI: Active
[12]
  t1/2: 1.356 h
[13]
  CLH: < 57.8 µL/min/mg
[14]
  inhibition: Dose-Dependent Effect

## COC(=O)/C=C/CNC(=O)c1cccc2cccnc12
[1]
  EC50: > 50 µM
[2]
  CC50: > 50 µM

## COC(=O)/C=C/CNC(=O)c1c[nH]c2ccc(Br)cc12
[1]
  EC50: 3.1 µM
[2]
  CC50: 16 µM

## COC(=O)/C=C/CNC(=O)c1cccc2ccc(C)nc12
[1]
  EC50: > 34 µM
[2]
  CC50: 34 µM

## COC(=O)/C=C/CNC(=O)c1ccccc1Nc1ccccc1
[1]
  EC50: > 38 µM
[2]
  CC50: 38 µM
